Numbered stars: 1 amine (or outer) side, 2 acyl side, 3 side chain; on linkers, the order of the positions; unused ones are H or OH. Bridge positions count the residues as written; N and C are the ends. Square brackets hold non-standard residues; d marks the D form. Peptide text beside a SMILES is read from it. * marks the point of attachment. ξ: configuration not given here. Phe(4-CONH2) = NC(=O)c1ccc(C[C@H](N)C(=O)O)cc1; Phe(4-COOH) = N[C@@H](Cc1ccc(C(=O)O)cc1)C(=O)O; Bip = N[C@@H](Cc1ccc(-c2ccccc2)cc1)C(=O)O; Phe(4-CN) = N#Cc1ccc(C[C@H](N)C(=O)O)cc1; Phe(3-Me) = Cc1cccc(C[C@H](N)C(=O)O)c1; βAsp = O=C(O)[C@H](CC(=O)[*:2])N[*:1]; NMeY = CN[C@@H](Cc1ccc(O)cc1)C(=O)O; Val(3-OH) = CC(C)(O)[C@H](N)C(=O)O; 4Pal = N[C@@H](Cc1ccncc1)C(=O)O; Cha = N[C@@H](CC1CCCCC1)C(=O)O; Ile(3ξ) = CCC(C)[C@H](N)C(=O)O; Thr(3ξ) = CC(O)[C@H](N)C(=O)O; Carboxymethyl = O=C(O)C*; NMeA = CN[C@@H](C)C(=O)O; Pra = C#CC[C@H](N)C(=O)O; Dab = NCC[C@H](N)C(=O)O; Dap = NC[C@H](N)C(=O)O; ξC = NC(CS)C(=O)O; Acm = CC(=O)NC*

This experiment deals with T1, PE-labeled human PD-L1-Ig binding to Jurkat cell line over-expressing human PD-1 (Jurkat-PD-1) (Homo sapiens, UniProt Q15116).
T1 construct: expressed in transfected cells; host or cells: Jurkat
T1 sequence (Q15116 25-288): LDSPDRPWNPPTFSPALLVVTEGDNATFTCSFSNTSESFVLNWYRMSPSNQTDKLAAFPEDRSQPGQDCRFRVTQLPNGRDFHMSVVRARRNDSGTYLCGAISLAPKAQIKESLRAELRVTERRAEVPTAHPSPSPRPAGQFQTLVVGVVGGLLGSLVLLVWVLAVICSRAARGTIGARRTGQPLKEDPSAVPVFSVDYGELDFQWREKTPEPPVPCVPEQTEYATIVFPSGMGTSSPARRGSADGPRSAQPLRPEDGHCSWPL
In words: Jurkat-PD-1 Cell Binding High-Content Screening Assay (CBA): Method 1. The conditions noted are these: Jurkat-hPD-1 cells, PE-labeled PD-L1-Ig 20 nM final; read-out: Jurkat HPDL1 PD1 IC50 (uM) (Method 1).
What is called IC50 is the concentration at which inhibition is half-maximal. With `CC(C)C[C@@H]1NC(=O)[C@H](CCN)NC(=O)[C@@H](CC(C)C)NC(=O)[C@H](C)N(C)C(=O)[C@H](C(C)C)NC(=O)[C@H](Cc2ccc(-c3ccccc3)cc2)NC(=O)[C@H](C(C)C)NC(=O)[C@H](Cc2c[nH]c3ccccc23)NC(=O)[C@H](CC(=O)O)NC(=O)[C@H](Cc2ccc(O)cc2)NC(=O)[C@H](CCC(N)=O)NC(=O)CSC[C@@H](C(=O)N[C@@H](C)C(N)=O)NC(=O)[C@H]([C@@H](C)O)NC(=O)[C@H](C(C)C)NC1=O` [Compound 1359] ({CH2CO}-QYDWV[Bip]V[NMeA][dL][Dab]LVTCA-NH2; thioether N-14), the IC50 came out at 0.05 µM.
Under `CC(=O)NCSC[C@H](NC(=O)C1CSCC(=O)N[C@@H](Cc2ccc(OCC(=O)O)cc2)C(=O)N[C@@H](CSCNC(C)=O)C(=O)N[C@@H](CC(=O)O)C(=O)N[C@@H](Cc2cccc(C)c2)C(=O)N[C@@H](CC(C)C)C(=O)N[C@@H](Cc2ccc(-c3ccccc3)cc2)C(=O)N[C@@H](C(C)C)C(=O)N(C)[C@@H](C)C(=O)N[C@H](CC(C)C)C(=O)N[C@@H](CC(N)=O)C(=O)N[C@@H](CC(C)C)C(=O)N[C@@H](C(C)C)C(=O)N[C@@H](CO)C(=O)N1)C(N)=O` (stereo partly drawn) [Compound 1889] ({CH2CO}-Y(Carboxymethyl)C(Acm)D[Phe(3-Me)]L[Bip]V[NMeA][dL]NLVS[ξC]C(Acm)-NH2; thioether N-14) stands 0.03 µM; under `CCC(C)[C@@H]1NC(=O)[C@H](Cc2ccc(-c3ccccc3)cc2)NC(=O)[C@H](C(C)C)NC(=O)[C@H](Cc2c[nH]c3ccccc23)NC(=O)[C@H](CC(=O)O)NC(=O)[C@H](Cc2ccc(O)cc2)NC(=O)[C@H](Cc2ccncc2)NC(=O)CSC[C@@H](C(=O)N[C@@H](CC(=O)O)C(=O)N[C@@H](CCN)C(=O)O)NC(=O)[C@H](C(C)O)NC(=O)[C@H](C(C)C)NC(=O)[C@H](CC2CCCCC2)NC(=O)[C@H](CC(N)=O)NC(=O)[C@@H](CC(C)C)NC(=O)[C@H](C)N(C)C1=O` (stereo partly drawn) [Compound 2001] ({CH2CO}-[4Pal]YDWV[Bip][Ile(3ξ)][NMeA][dL]N[Cha]V[Thr(3ξ)]CD[Dab]-OH; thioether N-14), 0.11 µM.
In the case of `CCC(C)[C@@H]1NC(=O)[C@H](Cc2ccc(-c3ccccc3)cc2)NC(=O)[C@H](C(C)C)NC(=O)[C@H](Cc2c[nH]c3ccccc23)NC(=O)[C@H](CC(=O)O)NC(=O)[C@H](Cc2ccc(OCC(=O)O)cc2)NC(=O)[C@H](C(C)O)NC(=O)CSC[C@@H](C(=O)N[C@@H](CO)C(=O)O)NC(=O)[C@H](C(C)O)NC(=O)[C@H](C(C)C)NC(=O)[C@H](CC2CCCCC2)NC(=O)[C@H](CCN)NC(=O)[C@@H](CC(C)C)NC(=O)[C@H](C)N(C)C1=O` (stereo partly drawn) [Compound 2230] ({CH2CO}-[Thr(3ξ)]Y(Carboxymethyl)DWV[Bip][Ile(3ξ)][NMeA][dL][Dab][Cha]V[Thr(3ξ)]CS-OH; thioether N-14), the IC50 is 0.03 µM.
Consider `CC(C)C[C@@H]1NC(=O)[C@H](CCCCN)NC(=O)[C@@H](CC(C)C)NC(=O)[C@H](C)N(C)C(=O)[C@H](CCCNC(=N)N)NC(=O)[C@H](Cc2ccc(-c3ccccc3)cc2)NC(=O)[C@H](C(C)C)NC(=O)[C@H](Cc2c[nH]c3ccccc23)NC(=O)[C@H](CC(=O)O)NC(=O)[C@H](Cc2ccc(O)cc2)NC(=O)[C@H](CC(N)=O)NC(=O)CSC[C@@H](C(=O)N[C@@H](C)C(N)=O)NC(=O)[C@H]([C@@H](C)O)NC(=O)[C@H](C(C)C)NC1=O` [Compound 1280] ({CH2CO}-NYDWV[Bip]R[NMeA][dL]KLVTCA-NH2; thioether N-14), for which the IC50 is 0.08 µM.
Then `C#CC[C@H](NC(=O)CNC(=O)[C@@H]1CSCC(=O)N[C@@H](Cc2ccc(OCC(=O)O)cc2)C(=O)N[C@@H](Cc2ccc(C(=O)O)cc2)C(=O)N[C@@H](CC(=O)O)C(=O)N[C@@H](Cc2c[nH]c3ccccc23)C(=O)N[C@@H](CC(C)C)C(=O)N[C@@H](Cc2ccc(-c3ccccc3)cc2)C(=O)N[C@@H](C(C)C)C(=O)N(C)[C@@H](C)C(=O)N[C@H](CC(C)C)C(=O)N[C@@H](CCN)C(=O)N[C@@H](CC2CCCCC2)C(=O)N[C@@H](C(C)(C)O)C(=O)N[C@@H](CO)C(=O)N1)C(N)=O` [Compound 1933] ({CH2CO}-Y(Carboxymethyl)[Phe(4-COOH)]DWL[Bip]V[NMeA][dL][Dab][Cha][Val(3-OH)]SCG[Pra]-NH2; thioether N-14), with 0.01 µM; and `CC(C)C[C@@H]1NC(=O)[C@H](CCN)NC(=O)[C@@H](CC(C)C)NC(=O)[C@H](C)N(C)C(=O)[C@H](C(C)C)NC(=O)[C@H](Cc2ccc(-c3ccccc3)cc2)NC(=O)[C@H](C(C)C)NC(=O)[C@H](Cc2c[nH]c3ccccc23)NC(=O)[C@H](CC(=O)O)NC(=O)[C@H](Cc2ccc(C#N)cc2)NC(=O)[C@H](CN)NC(=O)CSC[C@@H](C(=O)N[C@@H](C)C(N)=O)NC(=O)[C@H]([C@@H](C)O)NC(=O)[C@H](C(C)C)NC1=O` [Compound 1435] ({CH2CO}-[Dap][Phe(4-CN)]DWV[Bip]V[NMeA][dL][Dab]LVTCA-NH2; thioether N-14), with 0.05 µM; and `CCC(C)[C@@H]1NC(=O)[C@H](Cc2ccc(-c3ccccc3)cc2)NC(=O)[C@H](CC2CCCCC2)NC(=O)[C@H](Cc2c[nH]c3ccccc23)NC(=O)[C@H](CC(=O)O)NC(=O)[C@H](Cc2ccc(OCC(=O)O)cc2)NC(=O)[C@H](C(C)O)NC(=O)CSC[C@@H](C(=O)N[C@@H](CC(N)=O)C(=O)O)NC(=O)[C@H](CO)NC(=O)[C@H](C(C)C)NC(=O)[C@H](CC(C)C)NC(=O)[C@H](CCN)NC(=O)[C@@H](CC(C)C)NC(=O)[C@H](C)N(C)C1=O` (stereo partly drawn) [Compound 2223] ({CH2CO}-[Thr(3ξ)]Y(Carboxymethyl)DW[Cha][Bip][Ile(3ξ)][NMeA][dL][Dab]LVSCN-OH; thioether N-14), with 0.04 µM.
Then `Cc1cccc(C[C@@H]2NC(=O)[C@H](CC(=O)O)NC(=O)[C@H](Cc3ccc(O)cc3)NC(=O)[C@H](CC(N)=O)NC(=O)CSC[C@@H](C(=O)N[C@@H](C)C(N)=O)NC(=O)[C@H]([C@@H](C)O)NC(=O)[C@H](C(C)C)NC(=O)[C@H](CC(C)C)NC(=O)[C@H](CCCNC(=N)N)NC(=O)[C@@H](CC(C)C)NC(=O)[C@H](C)N(C)C(=O)[C@H](C(C)C)NC(=O)[C@H](Cc3ccc(-c4ccccc4)cc3)NC(=O)[C@H](C(C)C)NC2=O)c1` [Compound 1273] ({CH2CO}-NYD[Phe(3-Me)]V[Bip]V[NMeA][dL]RLVTCA-NH2; thioether N-14), with 0.01 µM.
Consider `CC(C)C[C@@H]1NC(=O)[C@H](CCN)NC(=O)[C@@H](CC(C)C)NC(=O)[C@H](C)N(C)C(=O)[C@H](CCCNC(=N)N)NC(=O)[C@H](Cc2ccc(-c3ccccc3)cc2)NC(=O)[C@H](C(C)C)NC(=O)[C@H](Cc2c[nH]c3ccccc23)NC(=O)[C@H](CC(=O)O)NC(=O)[C@H](Cc2ccc(OCC(=O)O)cc2)NC(=O)[C@H](CN)NC(=O)CSC[C@@H](C(=O)N[C@@H](C)C(N)=O)NC(=O)[C@H]([C@@H](C)O)NC(=O)[C@H](C(C)C)NC1=O` [Compound 1450] ({CH2CO}-[Dap]Y(Carboxymethyl)DWV[Bip]R[NMeA][dL][Dab]LVTCA-NH2; thioether N-14), for which the IC50 came out at 0.06 µM.
Then `Cc1cccc(C[C@@H]2NC(=O)[C@H](CC(=O)O)NC(=O)[C@H](Cc3ccc(OCC(=O)O)cc3)NC(=O)[C@H](Cc3ccncc3)NC(=O)CSC[C@@H](C(=O)N[C@@H](CCN)C(N)=O)NC(=O)[C@H](CO)NC(=O)[C@H](C(C)(C)O)NC(=O)[C@H](CC3CCCCC3)NC(=O)[C@H](CCN)NC(=O)[C@@H](CC(C)C)NC(=O)[C@H](Cc3ccc(O)cc3)N(C)C(=O)[C@H](Cc3ccc(OCC(=O)O)cc3)NC(=O)[C@H](Cc3ccc(-c4ccccc4)cc3)NC(=O)[C@H](Cc3ccc(OCC(=O)O)cc3)NC2=O)c1` [Compound 1835] ({CH2CO}-[4Pal]Y(Carboxymethyl)D[Phe(3-Me)]Y(Carboxymethyl)[Bip]Y(Carboxymethyl)[NMeY][dL][Dab][Cha][Val(3-OH)]SC[Dab]-NH2; thioether N-14), with 0.11 µM; and `Cc1cccc(C[C@@H]2NC(=O)[C@H](CC(=O)O)NC(=O)[C@H](Cc3ccc(OCC(=O)O)cc3)NC(=O)[C@H](C(C)O)NC(=O)CSC[C@@H](C(=O)N[C@@H](CCN)C(N)=O)NC(=O)[C@H](Cc3cnc[nH]3)NC(=O)[C@H](C(C)(C)O)NC(=O)[C@H](CC3CCCCC3)NC(=O)[C@H](CCN)NC(=O)[C@@H](CC(C)C)NC(=O)[C@H](C)N(C)C(=O)[C@H](Cc3ccc(C(N)=O)cc3)NC(=O)[C@H](Cc3ccc(-c4ccccc4)cc3)NC(=O)[C@H](Cc3ccc(OCC(=O)O)cc3)NC2=O)c1` (stereo partly drawn) [Compound 2158] ({CH2CO}-[Thr(3ξ)]Y(Carboxymethyl)D[Phe(3-Me)]Y(Carboxymethyl)[Bip][Phe(4-CONH2)][NMeA][dL][Dab][Cha][Val(3-OH)]HC[Dab]-NH2; thioether N-14), with 0.02 µM.
Then `C#CC[C@H](NC(=O)C[C@H](NC(=O)[C@@H]1CSCC(=O)N[C@@H](Cc2ccc(OCC(=O)O)cc2)C(=O)N[C@@H](Cc2ccncc2)C(=O)N[C@@H](CC(=O)O)C(=O)N[C@@H](Cc2c[nH]c3ccccc23)C(=O)N[C@@H](CC(C)C)C(=O)N[C@@H](Cc2ccc(-c3ccccc3)cc2)C(=O)N[C@@H](C(C)C)C(=O)N(C)[C@@H](C)C(=O)N[C@H](CC(C)C)C(=O)N[C@@H](CCN)C(=O)N[C@@H](CC2CCCCC2)C(=O)N[C@@H](C(C)C)C(=O)N[C@@H](CO)C(=O)N1)C(=O)O)C(N)=O` [Compound 1645] ({CH2CO}-Y(Carboxymethyl)[4Pal]DWL[Bip]V[NMeA][dL][Dab][Cha]VSC[βAsp][Pra]-NH2; thioether N-14), with 0.01 µM.
Then `CC(C)C[C@@H]1NC(=O)[C@H](Cc2c[nH]c3ccccc23)NC(=O)[C@H](CC(=O)O)NC(=O)[C@H](Cc2ccc(OCC(=O)O)cc2)NC(=O)[C@H](Cc2ccncc2)NC(=O)CSC[C@@H](C(=O)N[C@@H](C)C(N)=O)NC(=O)[C@H](CO)NC(=O)[C@H](C(C)C)NC(=O)[C@H](CC(C)C)NC(=O)[C@H](CC(N)=O)NC(=O)[C@@H](C)NC(=O)[C@H](C)N(C)C(=O)[C@H](C(C)C)NC(=O)[C@H](Cc2ccc(-c3ccccc3)cc2)NC1=O` [Compound 1563] ({CH2CO}-[4Pal]Y(Carboxymethyl)DWL[Bip]V[NMeA][dA]NLVSCA-NH2; thioether N-14), with 0.02 µM.

For the origin of these results see patent publication US20240409585A1, “MACROCYCLIC IMMUNOMODULATORS” (priority 2021, published 2024).
